Values of other authors, collected in PubChem BioAssay AID1259409 (Chemical Carcinogenesis Research Information System (CCRIS), 2018).
Several values for one entry are separate records, joined by “and”; a condition that tells them apart may be missing. Identical values can stand only once.

System: rodent chemically induced tumor inhibition, incidence and multiplicity
Test: CCRIS tumor inhibitor studies
Details: Promoter: NONE USED

For `CC1=C(/C=C/C(C)=C/C=C/C(C)=C/C=C/C=C(C)/C=C/C=C(C)/C=C/C2=C(C)CCCC2(C)C)C(C)(C)CCC1`, the outcome (Carcinogen: N-METHYL-N'-NITRO-N-NITROSOGUANIDINE, 70-25-7, Dose [Inhibitor]: 0, 0.4% IN DIET FOR 2 WK PRIOR TO FIRST CARCINOGEN DOSE FOLLOWED BY 0, 0.2% IN DIET FOR 52 WK (STUDY DURATION: 54 WK), Dose [Inhibitor]: 0, 0.4% IN DIET FOR 2 WK PRIOR TO FIRST CARCINOGEN DOSE FOLLOWED BY 0, 0.2% IN DIET FOR 52 WK (STUDY DURATION: 54 WK), Route [Inhibitor]: ORAL, Species: RAT, Strain/Sex: WISTAR/MALE, Target Tissue: Type of Lesion: SMALL INTESTINE: FIBROSARCOMA, Dose [Carcinogen]: 80 UG/ML IN DRINKING WATER FOR 52 WK) is listed as 0/36 (0%), 1/35 (3%), -300%, not calculated, the “tumour outcome (control, treated, inhibition, significance)” value (Carcinogen: N-METHYL-N'-NITRO-N-NITROSOGUANIDINE, 70-25-7, Dose [Inhibitor]: 0, 0.4% IN DIET FOR 2 WK PRIOR TO FIRST CARCINOGEN DOSE FOLLOWED BY 0, 0.2% IN DIET FOR 52 WK (STUDY DURATION: 54 WK), Dose [Inhibitor]: 0, 0.4% IN DIET FOR 2 WK PRIOR TO FIRST CARCINOGEN DOSE FOLLOWED BY 0, 0.2% IN DIET FOR 52 WK (STUDY DURATION: 54 WK), Route [Inhibitor]: ORAL, Species: RAT, Strain/Sex: WISTAR/MALE, Target Tissue: Type of Lesion: SMALL INTESTINE: LEIOMYOMA, Dose [Carcinogen]: 80 UG/ML IN DRINKING WATER FOR 52 WK) is listed as 1/36 (3%), 0/35 (0%), 100%, not calculated and the “tumour outcome (control, treated, inhibition, significance)” value (Carcinogen: NONE USED, Dose [Inhibitor]: 0, 0.005% IN DRINKING WATER AD LIBITUM FOR 40 WK (STUDY DURATION: 40 WK), Route [Inhibitor]: ORAL, Species: MOUSE, Strain/Sex: C3H/HE/MALE, Target Tissue: Type of Lesion: LIVER: TUMOR) is listed as 100%, 100%, 0%, not significant. The “tumour outcome (control, treated, inhibition, significance)” value (Carcinogen: NONE USED, Dose [Inhibitor]: 0, 0.005% IN DRINKING WATER FOR 40 WK (STUDY DURATION: 40 WK), Route [Inhibitor]: ORAL, Species: MOUSE, Strain/Sex: C3H/HE/MALE, Target Tissue: Type of Lesion: LIVER: TUMORS) was 16/16 (100%), 16/16 (100%), 0%, not significant, the “tumour outcome (control, treated, inhibition, significance)” value (Carcinogen: NONE USED, Dose [Inhibitor]: 0, 0.05% IN DRINKING WATER AD LIBITUM FOR 40 WK (STUDY DURATION: 40 WK), Route [Inhibitor]: ORAL, Species: MOUSE, Strain/Sex: C3H/HE/MALE, Target Tissue: Type of Lesion: LIVER: TUMOR) was 100%, 100%, 0%, not significant and the “tumour outcome (control, treated, inhibition, significance)” value (Carcinogen: NONE USED, Dose [Inhibitor]: 0, 0.05% IN DRINKING WATER FOR 40 WK (STUDY DURATION: 40 WK), Route [Inhibitor]: ORAL, Species: MOUSE, Strain/Sex: C3H/HE/MALE, Target Tissue: Type of Lesion: LIVER: TUMORS) was 16/16 (100%), 17/17 (100%), 0%, not significant. The “tumour outcome (control, treated, inhibition, significance)” value (Carcinogen: NONE USED, Dose [Inhibitor]: 0, 2.5 MG/D IN DRINKING WATER FROM 8 MO OF AGE (STUDY DURATION: 15 MO), Route [Inhibitor]: ORAL, Species: MOUSE, Strain/Sex: C3H/FEMALE, Target Tissue: Type of Lesion: MAMMARY GLAND: TUMOR) was 12/20 (60%), 4/19 (21%), 65%, not calculated, the “tumour outcome (control, treated, inhibition, significance)” value (Carcinogen: UV-B IRRADIATION (HANOVIA QUARTZ CONTACT LAMP IN 290-320 NM RANGE), Dose [Inhibitor]: 0.4 ML OF BEADLET SOLUTION CONTAINING 0.1 G/4 ML 3/WK FOR 1 MO FOLLOWED BY 0.2 ML OF BEADLET SOLUTION CONTAINING 0.1 G/4, Route [Inhibitor]: INTRAPERITONEAL, Species: MOUSE, Strain/Sex: ALBINO, Target Tissue: Type of Lesion: SKIN: SQUAMOUS CELL CARCINOMA, Dose [Carcinogen]: 6.5 KJ/SQ M 3/WK FOR 15 MO BEGINNING 1 MO POST AGENT DOSE) was 14/21 (67%), 6/20 (25%), 63%, p=0.0189 and 14/21 (67%), 5/18 (28%), 58%, p=0.0154 and the “tumour outcome (control, treated, inhibition, significance)” value (Carcinogen: UV-B IRRADIATION (WESTINGHOUSE FS-20 SUNLAMP 55% IN 290-320 NM RANGE), Dose [Inhibitor]: 3.3 G/100 G OF PELLETIZED FEED BEGINNING 10 WK PRIOR TO CARCINOGEN DOSE TO 24 WK POST CARCINOGEN DOSE (STUDY DURATION: 3, Route [Inhibitor]: ORAL, Species: MOUSE, Strain/Sex: SKH, Target Tissue: Type of Lesion: SKIN: TUMOR, Dose [Carcinogen]: 80 KJ/SQ M TOTAL ENERGY DURING A 220 MINUTE SINGLE EXPOSURE) was 4/9 (44%), 2/7 (29%), 34%, not significant. For the same compound, the “tumour outcome (control, treated, inhibition, significance)” value (Carcinogen: UVB IRRADIATION, Dose [Inhibitor]: 0, 1% IN DIET FOR DURATION OF STUDY BEGINNING 3 WK PRIOR TO IRRADIATION (STUDY DURATION: 33 WK), Route [Inhibitor]: ORAL, Species: MOUSE, Strain/Sex: C3H/HEN/FEMALE, Target Tissue: Type of Lesion: SKIN: TUMOR, Dose [Carcinogen]: 6 J/M2/SEC 30 MIN/D, 5 D/WK FOR 27 WK) was 81%, 67%, 17%, not significant.
